Usually MIC stands for the least concentration at which growth counts as inhibited.

Results on 2 compounds are retold here after patent publication US5834453A, “Methods for the manufacture and use of antimicrobial sterol conjugates” (Lehigh University, priority 1997, dated 1998).

Data set [1] has as its system A. fumigatus (H1120). Nature of the data set: MIC, micro-broth dilution. It counts as cell-based. The following applies: Aspergillus fumigatus, 35° C., 24 hours, read-out: ANTIMICROBIAL ACTIVITY (MIC). The essentials: (§1)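 Micro-broth dilution with 10^6/ml inocula in 0.5× trypticase soy broth, 24 h at 35° C. MIC taken as concentration giving complete growth inhibition; also tested at varied pH, with CaCl₂ or MgCl₂, or with immobilized horse serum.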
Background: In broth dilution the organism is exposed to a series of concentrations in liquid medium.

The test system of data set [2] is A. fumigatus (H29709). Kind of data set: MIC, micro-broth dilution. It counts as cell-based. Conditions: Aspergillus fumigatus, 35° C., 24 hours, read-out: ANTIMICROBIAL ACTIVITY (MIC). The procedure, abridged:
as §1

Data set [3] relates to C. albicans (90028). Kind of data set: MIC, micro-broth dilution. It is filed as cell-based. Conditions: Candida albicans, 35° C., 24 hours, read-out: ANTIMICROBIAL ACTIVITY (MIC). The essentials:
as §1

Data set [4] concerns C. neoformans (90012). Nature of the data set: MIC, micro-broth dilution. It is filed as cell-based. The following applies: Cryptococcus neoformans, 24 h, read-out: ANTIMICROBIAL ACTIVITY (MIC). The procedure, abridged: as §1
Data set [5] concerns C. neoformans (M68979). Kind of data set: MIC, micro-broth dilution. It counts as cell-based. Conditions: Cryptococcus neoformans, 24 h, read-out: ANTIMICROBIAL ACTIVITY (MIC). The essentials: as §1
Data set [6] concerns E. cloacae (13047). Kind of data set: MIC, micro-broth dilution. Conditions: Enterobacter cloacae, 35° C., 24 hours, read-out: ANTIMICROBIAL ACTIVITY (MIC). It counts as cell-based. The essentials:
as §1

For data set [7], the system named is E. coli (25922). Kind of data set: MIC, micro-broth dilution. It is filed as cell-based. Conditions: Escherichia coli, 35° C., 24 hours, read-out: ANTIMICROBIAL ACTIVITY (MIC). The essentials: as §1
Data set [8] relates to E. faecalis (29212). Nature of the data set: MIC, micro-broth dilution. The following applies: Enterococcus faecalis, 35° C., 24 hours, read-out: ANTIMICROBIAL ACTIVITY (MIC). It is filed as cell-based. The procedure, abridged: as §1
The test system of data set [9] is E. faecium (T6480-9). Kind of data set: MIC, micro-broth dilution. It counts as cell-based. Conditions: Enterococcus faecium, 35° C., 24 hours, read-out: ANTIMICROBIAL ACTIVITY (MIC). The essentials:
as §1

Data set [10] has as its system K. pneumoniae (13883). Kind of data set: MIC, micro-broth dilution. It is filed as cell-based. The following applies: Klebsiella pneumoniae, 24 h, read-out: ANTIMICROBIAL ACTIVITY (MIC). The essentials:
as §1

Data set [11] concerns P. aeruginosa (10145). Nature of the data set: MIC, micro-broth dilution. It is filed as cell-based. The following applies: Pseudomonas aeruginosa, 35° C., 24 hours, read-out: ANTIMICROBIAL ACTIVITY (MIC). The procedure, abridged:
as §1

Data set [12] relates to P. aeruginosa (2853). Kind of data set: MIC, micro-broth dilution. It is filed as cell-based. The following applies: Pseudomonas aeruginosa, 24 h, read-out: ANTIMICROBIAL ACTIVITY (MIC). The essentials: as §1
Data set [13] has as its system P. vulgaris (13315). Kind of data set: MIC, micro-broth dilution. Conditions: Proteus vulgaris, 35° C., 24 hours, read-out: ANTIMICROBIAL ACTIVITY (MIC). It is filed as cell-based. The essentials: as §1
Data set [14] concerns S. agalactiae (13813). Nature of the data set: MIC, micro-broth dilution. Conditions: Streptococcus agalactiae, 35° C., 24 hours, read-out: ANTIMICROBIAL ACTIVITY (MIC). It counts as cell-based. The essentials:
as §1

Data set [15] relates to S. aureus (25923). Kind of data set: MIC, micro-broth dilution. The following applies: Staphylococcus aureus, 35° C., 24 hours, read-out: ANTIMICROBIAL ACTIVITY (MIC). It counts as cell-based. The essentials: as §1
Data set [16] has as its system S. aureus (29213). Kind of data set: MIC, micro-broth dilution. It counts as cell-based. Conditions: Staphylococcus aureus, 24 h, read-out: ANTIMICROBIAL ACTIVITY (MIC). The essentials:
as §1

The subject of data set [17] is S. aureus (H20809). Nature of the data set: MIC, micro-broth dilution. It is filed as cell-based. Conditions: Staphylococcus aureus, 24 h, read-out: ANTIMICROBIAL ACTIVITY (MIC). The procedure, abridged: as §1
Data set [18] deals with S. epidermidis (12228). Nature of the data set: MIC, micro-broth dilution. It counts as cell-based. The following applies: Staphylococcus epidermidis, 35° C., 24 hours, read-out: ANTIMICROBIAL ACTIVITY (MIC). The essentials: as §1
Data set [19] deals with S. marcescens (13880). Kind of data set: MIC, micro-broth dilution. It is filed as cell-based. The following applies: Serratia marcescens, 24 h, read-out: ANTIMICROBIAL ACTIVITY (MIC). The essentials:
as §1

Data set [20] deals with S. pneumoniae (6305). Kind of data set: MIC, micro-broth dilution. It is filed as cell-based. Conditions: Streptococcus pneumoniae, 35° C., 24 hours, read-out: ANTIMICROBIAL ACTIVITY (MIC). The procedure, abridged: as §1
Data set [21] concerns S. pyrogenes (19615). Nature of the data set: MIC, micro-broth dilution. It is filed as cell-based. Conditions: 24 h, read-out: ANTIMICROBIAL ACTIVITY (MIC). The procedure, abridged: as §1
A short description of data set [22]: Hemolytic activity, minimal hemolytic concentration (MHC). It is filed as cell-based, sheep. The following applies: sheep red blood cells, 24 hours at 37° C. in saline. The method, then: (§2) Hemolytic activity of the squalamine mimics according to the present invention were also studied by incubating sheep red blood cells for 24 hours at 37° C. in saline (final concentration of 0.5%) with or without respective concentrations of the squalamine mimics. The minimal hemolytic concentration (MHC) was determined as the lowest concentration of a mimic that raised visible hemolysis.

The subject of data set [23] is sheep red blood cells. Described as above. It counts as cell-based. Here is the method:
as §2

The subject of data set [24] is various groups of microorganisms. Kind of data set: Antimicrobial activity (MIC), all microorganisms tested. It counts as cell-based. Here is the method: (§3) The antimicrobial activity of the compounds according to the present invention were compared with the results obtained for squalamine as reported in Proc. Nat. Acad. Sci. USA 90:1354 (1993), supra, the disclosure of which is incorporated in toto herein. The data reported in the following table is the minimum inhibitory concentration (MIC) required for complete inhibition of microbial growth. The MIC was determined utilizing known micro-broth dilution methods in which inocula of 10^6 /ml of the test organism were incubated in 0.5× trypticase soy broth at 35° C. for 24 hours. MIC's were also tested under various pH conditions, with calcium chloride or magnesium chloride, or with immobilized horse serum.
The numbers in parentheses contained in the table correspond to accession numbers with the American Type Culture Collection (reference strains were either obtained from the American Type Culture Collection or from the Microbiology Laboratory at Memorial Sloan-Kettering Cancer Center; Bacterial strains were maintained on Columbia 5% sheep blood agar plates, and fungi were maintained on Sabouraud Dextrose agar plates).

The subject of data set [25] is gram positive cocci. Nature of the data set: Antimicrobial activity (MIC), gram positive cocci. It counts as cell-based. The following applies: of all the mimics tested. The method, then:
as §3

The test system of data set [26] is fungi. Nature of the data set: Antimicrobial activity (MIC), fungi. It is filed as cell-based. The following applies: of all the mimics tested. Here is the method: as §3
In data set [27] the test system is S. aureus (29213). The following applies: S. aureus ATCC 29213; as reported in the literature; cited from earlier work.
Data set [28] deals with P. aeruginosa (2853). Conditions: P. aeruginosa ATCC 27853; as reported in the literature; cited from earlier work.
The test system of data set [29] is S. marcescens (13880). Conditions: known; cited from earlier work.
Data set [30] relates to various groups of microorganisms. Conditions: broad spectrum of microorganisms; cited from earlier work.
Data set [31] deals with P. vulgaris. Conditions: P. vulgaris ATCC 13883; as reported in the literature; cited from earlier work.

≈ marks a conversion by molar mass, not a printed value. Entries after “also recorded” stand apart in the source; their conditions may differ.

On to `C[C@H](CCC(=O)NCCCNCCCCNCCCN)[C@H]1CC[C@H]2[C@@H]3CC[C@@H]4C[C@H](O)CC[C@]4(C)[C@H]3CC[C@]12C` [SM-25], for which the MIC in [1] is 12.5 µg/mL (≈ 22.3 µM); in [2], 12.5 µg/mL (≈ 22.3 µM); in [3], 3.13 µg/mL (≈ 5.58 µM); in data set [4] it was 0.39 µg/mL (≈ 0.695 µM); in data set [5] it was 0.39 µg/mL (≈ 0.695 µM); in data set [6] it was > 100 µg/mL. The MIC in data set [7] is 1.56 µg/mL (≈ 2.78 µM); in [8] it was 3.13 µg/mL (≈ 5.58 µM); in data set [9], 3.13 µg/mL (≈ 5.58 µM); in data set [10] it was > 100 µg/mL; in data set [11], 3.13 µg/mL (≈ 5.58 µM); in data set [12], 0.78 µg/mL (≈ 1.39 µM). Further, the MIC was 12.5 µg/mL (≈ 22.3 µM) in data set [13]; 0.78 µg/mL (≈ 1.39 µM) in data set [14]; 0.78 µg/mL (≈ 1.39 µM) in data set [15]; 0.78 µg/mL (≈ 1.39 µM) in data set [16]; 0.39 µg/mL (≈ 0.695 µM) in [17]; 0.39 µg/mL (≈ 0.695 µM) in data set [18]. For the same compound, the MIC was > 100 µg/mL in data set [19], 3.13 µg/mL (≈ 5.58 µM) in [20] and 0.78 µg/mL (≈ 1.39 µM) in data set [21]. In data set [22], this compound returned a minimal hemolytic concentration (MHC) at 24 h of 50 µg/mL. Moreover, in data set [23], the “hemolytic activity (in words)” value was “unwanted hemolytic activity”. Besides, the “antimicrobial activity (in words)” value in [24] is “highly active; also recorded: more activity than SM-8, SM-14, and SM-22”. Further, in data set [25], the “potency ranking against gram positive cocci” value is “most potent activity against gram positive cocci and fungi of all the mimics tested”. Besides, the “potency ranking against fungi” value in data set [26] is “most potent activity against gram positive cocci and fungi of all the mimics tested”.
In the case of `CC(C)C(CC[C@@H](C)[C@H]1CC[C@H]2[C@@H]3[C@H](O)C[C@H]4C[C@@H](NCCCNCCCCN)CC[C@]4(C)[C@H]3CC[C@]12C)OS(=O)(=O)O` (stereo partly drawn) [squalamine, 3β-N-1-{N-[3-(4-aminobutyl)]-1,3-diaminopropane}-7α,24.zeta.-dihydroxy-5α-cholestane 24-sulfate], the values for the MIC of squalamine in data set [27], in [28] and in data set [31] were 1 to 2 µg/mL, 4 to 8 µg/mL and 4 to 8 µg/mL, respectively. Also, the “resistance of S. marcescens to squalamine” value in data set [29] is listed as “known to be resistant to squalamine”. In [30], the “antimicrobial activity of squalamine (in words)” value is listed as “potent antimicrobial activity against a broad spectrum of microorganisms”.
